In US20100298141A1, “SUBSTITUTED PYRIDINE N-OXIDE HERBICIDES” (E. I. DU PONT DE NEMOURS AND COMPANY, priority 2007, published 2010):

Tests used:
Test in all cases: Test F preemergence test
green foxtail = type: in vivo, Setaria viridis; conditions: scale 0 to 100
Summary of the method: (§1)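 Greenhouse screen: test chemical in surfactant-containing non-phytotoxic solvent applied preemergence to sown seeds or postemergence to sugarcane plants; after 14 to 21 days each species scored visually versus controls.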

mustard = type: in vivo, Brassica nigra; conditions: scale 0 to 100
Summary of the method: as §1

guineagrass = type: in vivo, Panicum maximum; conditions: scale 0 to 100
Summary of the method: as §1

dallisgrass = type: in vivo, Paspalum dilatatum; conditions: scale 0 to 100
Summary of the method: as §1

barnyardgrass = type: in vivo, Echinochloa crus-galli
Summary of the method: as §1

southern sandbur = type: in vivo, Cenchrus echinatus; conditions: scale 0 to 100; for Sandbur plant response rating: 125 g ai/ha
Summary of the method: as §1

prickly sida = type: in vivo, Sida spinosa; conditions: scale 0 to 100
Summary of the method: as §1

common purslane = type: in vivo, Portulaca oleracea; conditions: scale 0 to 100
Summary of the method: as §1

common groundsel = type: in vivo, Senecio vulgaris; conditions: scale 0 to 100
Summary of the method: as §1

itchgrass = type: in vivo, Rottboellia cochinchinensis; conditions: scale 0 to 100
Summary of the method: as §1

quackgrass = type: in vivo, Elytrigia repens; conditions: scale 0 to 100
Summary of the method: as §1

field bindweed = type: in vivo, Convolvulus arvensis; conditions: scale 0 to 100
Summary of the method: as §1

common mallow = type: in vivo, Malva sylvestris; conditions: scale 0 to 100; for Mallow plant response rating: 125 g ai/ha
Summary of the method: as §1

[1] = 16 g ai/ha, preemergence, scale 0 to 100 (0 no effect, 100 complete control)
[2] = 125 g ai/ha, preemergence, scale 0 to 100
[3] = Preemergence, 31 g ai/ha, scale 0 to 100

CCn1nc(C(F)(F)F)c(CS(=O)(=O)c2cccc[n+]2[O-])c1OCC(F)(F)F [Compound 63]
Plant response rating, Foxtail, Green (green foxtail; 16 g ai/ha, preemergence): 65
Foxtail, Green plant response rating (green foxtail; 62 g ai/ha, Preemergence): 90
Foxtail, Green plant response rating (green foxtail; 125 g ai/ha, preemergence): 100
Plant response rating, Foxtail, Green (green foxtail; Preemergence, 31 g ai/ha): 80
Plant response rating, Black Mustard (mustard; 16 g ai/ha, preemergence): 0
Black Mustard plant response rating (mustard; 62 g ai/ha, Preemergence): 50
Black Mustard plant response rating (mustard; 125 g ai/ha, preemergence): 90
Plant response rating, Black Mustard (mustard; Preemergence, 31 g ai/ha): 50
Plant response rating, Guineagrass (guineagrass; 16 g ai/ha, preemergence): 70
Guineagrass plant response rating (guineagrass; 62 g ai/ha, Preemergence): 100
Guineagrass plant response rating (guineagrass; 125 g ai/ha, preemergence): 100
Plant response rating, Guineagrass (guineagrass; Preemergence, 31 g ai/ha): 95
Plant response rating, Dallisgrass (dallisgrass; 16 g ai/ha, preemergence): 15
Dallisgrass plant response rating (dallisgrass; 62 g ai/ha, Preemergence): 80
Dallisgrass plant response rating (dallisgrass; 125 g ai/ha, preemergence): 100
Plant response rating, Dallisgrass (dallisgrass; Preemergence, 31 g ai/ha): 50
Plant response rating, Barnyardgrass (barnyardgrass; [1]): 80
Barnyardgrass plant response rating (barnyardgrass; 62 g ai/ha, Preemergence, scale 0 to 100): 95
Barnyardgrass plant response rating (barnyardgrass; [2]): 100
Plant response rating, Barnyardgrass (barnyardgrass; [3]): 80
Plant response rating, Sandbur (southern sandbur; 16 g ai/ha, preemergence): 65
Sandbur plant response rating (southern sandbur; preemergence): 100
Plant response rating, Sandbur (southern sandbur; Preemergence, 62 g ai/ha): 100
Plant response rating, Sandbur (southern sandbur; Preemergence, 31 g ai/ha): 100
Plant response rating, Prickly Sida (prickly sida; 16 g ai/ha, preemergence): 20
Prickly Sida plant response rating (prickly sida; 62 g ai/ha, Preemergence): 65
Prickly Sida plant response rating (prickly sida; 125 g ai/ha, preemergence): 90
Plant response rating, Prickly Sida (prickly sida; Preemergence, 31 g ai/ha): 65
Plant response rating, Purslane (common purslane; 16 g ai/ha, preemergence): 0
Purslane plant response rating (common purslane; 62 g ai/ha, Preemergence): 0
Purslane plant response rating (common purslane; 125 g ai/ha, preemergence): 20
Plant response rating, Purslane (common purslane; Preemergence, 31 g ai/ha): 0
Plant response rating, Groundsel (common groundsel; 16 g ai/ha, preemergence): 0
Groundsel plant response rating (common groundsel; 62 g ai/ha, Preemergence): 0
Groundsel plant response rating (common groundsel; 125 g ai/ha, preemergence): 0
Plant response rating, Groundsel (common groundsel; Preemergence, 31 g ai/ha): 0
Plant response rating, Itchgrass (itchgrass; 16 g ai/ha, preemergence): 10
Itchgrass plant response rating (itchgrass; 62 g ai/ha, Preemergence): 80
Itchgrass plant response rating (itchgrass; 125 g ai/ha, preemergence): 90
Plant response rating, Itchgrass (itchgrass; Preemergence, 31 g ai/ha): 50
Plant response rating, Quackgrass (quackgrass; 16 g ai/ha, preemergence): 0
Quackgrass plant response rating (quackgrass; 62 g ai/ha, Preemergence): 95
Quackgrass plant response rating (quackgrass; 125 g ai/ha, preemergence): 100
Plant response rating, Quackgrass (quackgrass; Preemergence, 31 g ai/ha): 65
Plant response rating, Field Bindweed (field bindweed; 16 g ai/ha, preemergence): 0
Field Bindweed plant response rating (field bindweed; 62 g ai/ha, Preemergence): 0
Field Bindweed plant response rating (field bindweed; 125 g ai/ha, preemergence): 0
Plant response rating, Field Bindweed (field bindweed; Preemergence, 31 g ai/ha): 0
Plant response rating, Mallow (common mallow; 16 g ai/ha, preemergence): 0
Mallow plant response rating (common mallow; preemergence): 100
Plant response rating, Mallow (common mallow; Preemergence, 31 g ai/ha): 98

Cn1nc(C(F)(F)F)c(C[S+]([O-])c2ccc(Cl)c[n+]2[O-])c1OCC(F)F (stereo not shown) [Compound 85]
Plant response rating, Foxtail, Green (green foxtail; 16 g ai/ha, preemergence): 35
Foxtail, Green plant response rating (green foxtail; 125 g ai/ha, preemergence): 95
Plant response rating, Foxtail, Green (green foxtail; Preemergence, 62 g ai/ha): 90
Plant response rating, Foxtail, Green (green foxtail; Preemergence, 31 g ai/ha): 70
Plant response rating, Black Mustard (mustard; 16 g ai/ha, preemergence): 40
Black Mustard plant response rating (mustard; 125 g ai/ha, preemergence): 60
Plant response rating, Black Mustard (mustard; Preemergence, 62 g ai/ha): 40
Plant response rating, Black Mustard (mustard; Preemergence, 31 g ai/ha): 40
Plant response rating, Guineagrass (guineagrass; 16 g ai/ha, preemergence): 50
Guineagrass plant response rating (guineagrass; 125 g ai/ha, preemergence): 100
Plant response rating, Guineagrass (guineagrass; Preemergence, 62 g ai/ha): 98
Plant response rating, Guineagrass (guineagrass; Preemergence, 31 g ai/ha): 98
Plant response rating, Dallisgrass (dallisgrass; 16 g ai/ha, preemergence): 15
Dallisgrass plant response rating (dallisgrass; 125 g ai/ha, preemergence): 98
Plant response rating, Dallisgrass (dallisgrass; Preemergence, 62 g ai/ha): 85
Plant response rating, Dallisgrass (dallisgrass; Preemergence, 31 g ai/ha): 75
Plant response rating, Barnyardgrass (barnyardgrass; [1]): 50
Barnyardgrass plant response rating (barnyardgrass; [2]): 100
Plant response rating, Barnyardgrass (barnyardgrass; Preemergence, 62 g ai/ha, scale 0 to 100): 90
Plant response rating, Barnyardgrass (barnyardgrass; [3]): 80
Plant response rating, Sandbur (southern sandbur; 16 g ai/ha, preemergence): 10
Sandbur plant response rating (southern sandbur; preemergence): 100
Plant response rating, Sandbur (southern sandbur; Preemergence, 62 g ai/ha): 100
Plant response rating, Sandbur (southern sandbur; Preemergence, 31 g ai/ha): 70
Plant response rating, Prickly Sida (prickly sida; 16 g ai/ha, preemergence): 0
Prickly Sida plant response rating (prickly sida; 125 g ai/ha, preemergence): 60
Plant response rating, Prickly Sida (prickly sida; Preemergence, 62 g ai/ha): 40
Plant response rating, Prickly Sida (prickly sida; Preemergence, 31 g ai/ha): 20
Plant response rating, Purslane (common purslane; 16 g ai/ha, preemergence): 0
Purslane plant response rating (common purslane; 125 g ai/ha, preemergence): 60
Plant response rating, Purslane (common purslane; Preemergence, 62 g ai/ha): 60
Plant response rating, Purslane (common purslane; Preemergence, 31 g ai/ha): 25
Plant response rating, Groundsel (common groundsel; 16 g ai/ha, preemergence): 0
Groundsel plant response rating (common groundsel; 125 g ai/ha, preemergence): 65
Plant response rating, Groundsel (common groundsel; Preemergence, 62 g ai/ha): 0
Plant response rating, Groundsel (common groundsel; Preemergence, 31 g ai/ha): 0
Plant response rating, Itchgrass (itchgrass; 16 g ai/ha, preemergence): 25
Itchgrass plant response rating (itchgrass; 125 g ai/ha, preemergence): 90
Plant response rating, Itchgrass (itchgrass; Preemergence, 62 g ai/ha): 70
Plant response rating, Itchgrass (itchgrass; Preemergence, 31 g ai/ha): 70
Plant response rating, Quackgrass (quackgrass; 16 g ai/ha, preemergence): 20
Quackgrass plant response rating (quackgrass; 125 g ai/ha, preemergence): 95
Plant response rating, Quackgrass (quackgrass; Preemergence, 62 g ai/ha): 80
Plant response rating, Quackgrass (quackgrass; Preemergence, 31 g ai/ha): 65
Plant response rating, Field Bindweed (field bindweed; 16 g ai/ha, preemergence): 0
Field Bindweed plant response rating (field bindweed; 125 g ai/ha, preemergence): 35
Plant response rating, Field Bindweed (field bindweed; Preemergence, 62 g ai/ha): 20
Plant response rating, Field Bindweed (field bindweed; Preemergence, 31 g ai/ha): 0
Plant response rating, Mallow (common mallow; 16 g ai/ha, preemergence): 0
Mallow plant response rating (common mallow; preemergence): 98
Plant response rating, Mallow (common mallow; Preemergence, 62 g ai/ha): 98
Plant response rating, Mallow (common mallow; Preemergence, 31 g ai/ha): 50
